Data taken from publication PMC12748989 (Nature Communications, 2025).

Columns and labels:
PBMC = conditions: 12.5 µM

Row | SMILES | Average (percentage cell inhibition), Dmastoparan MDA-MB231 12.5uM (MDA-MB-231 cells) [%] | Average (percentage cell inhibition), Mastoparan PBMC (PBMC) [%]
1 | CC[C@H](C)[C@H](N)C(=O)N[C@@H](CC(N)=O)C(=O)N[C@@H](CC(C)C)C(=O)N[C@@H](CCCCN)C(=O)N[C@@H](CCCNC(=N)N)C(=O)N[C@@H](CC(C)C)C(=O)N[C@@H](C)C(=O)N[C@@H](C)C(=O)N[C@@H](CC(C)C)C(=O)N[C@@H](C)C(=O)N[C@@H](CCCCN)C(=O)N[C@@H](CCCCN)C(=O)N[C@H](C(=O)N[C@@H](CC(C)C)C(N)=O)[C@@H](C)CC [R5] | 27.1833 | -0.4192
2 | CC[C@H](C)[C@H](N)C(=O)N[C@@H](CC(N)=O)C(=O)N[C@@H](Cc1c[nH]c2ccccc12)C(=O)N[C@@H](CCCCN)C(=O)N[C@@H](C)C(=O)N[C@@H](CC(C)C)C(=O)N[C@@H](C)C(=O)N[C@@H](C)C(=O)N[C@@H](CC(C)C)C(=O)N[C@@H](C)C(=O)N[C@@H](CCCCN)C(=O)N[C@@H](CCCCN)C(=O)N[C@H](C(=O)N[C@@H](CC(C)C)C(N)=O)[C@@H](C)CC [W3] | 65.1242 | 22.6054
3 | CC[C@H](C)[C@H](N)C(=O)N[C@@H](CC(N)=O)C(=O)N[C@@H](CC(C)C)C(=O)N[C@H](C(=O)N[C@@H](C)C(=O)N[C@@H](CC(C)C)C(=O)N[C@@H](C)C(=O)N[C@@H](C)C(=O)N[C@@H](CC(C)C)C(=O)N[C@@H](C)C(=O)N[C@@H](CCCCN)C(=O)N[C@@H](CCCCN)C(=O)N[C@H](C(=O)N[C@@H](CC(C)C)C(N)=O)[C@@H](C)CC)[C@@H](C)O [T4] | 29.8701 | 12.9948
4 | CC[C@H](C)[C@H](N)C(=O)N[C@@H](CC(N)=O)C(=O)N[C@@H](CC(C)C)C(=O)N[C@@H](CCCCN)C(=O)N[C@@H](C)C(=O)N[C@@H](CC(C)C)C(=O)N[C@@H](C)C(=O)N[C@H](C(=O)N[C@@H](CC(C)C)C(=O)N[C@@H](C)C(=O)N[C@@H](CCCCN)C(=O)N[C@@H](CCCCN)C(=O)N[C@H](C(=O)N[C@@H](CC(C)C)C(N)=O)[C@@H](C)CC)C(C)C [V8] | 43.0954 | 11.0844
5 | CC[C@H](C)[C@H](N)C(=O)N[C@@H](CC(N)=O)C(=O)N[C@@H](CC(C)C)C(=O)N[C@@H](CCCCN)C(=O)N[C@@H](C)C(=O)N[C@@H](CC(C)C)C(=O)N[C@@H](C)C(=O)N[C@@H](C)C(=O)N[C@@H](CC(C)C)C(=O)N[C@@H](C)C(=O)N[C@@H](Cc1ccc(O)cc1)C(=O)N[C@@H](CCCCN)C(=O)N[C@H](C(=O)N[C@@H](CC(C)C)C(N)=O)[C@@H](C)CC [Y11] | 42.1135 | 16.0926
6 | CC[C@H](C)[C@H](N)C(=O)N[C@@H](CC(N)=O)C(=O)N[C@@H](CC(C)C)C(=O)N[C@@H](CCCCN)C(=O)NCC(=O)N[C@@H](CC(C)C)C(=O)N[C@@H](C)C(=O)N[C@@H](C)C(=O)N[C@@H](CC(C)C)C(=O)N[C@@H](C)C(=O)N[C@@H](CCCCN)C(=O)N[C@@H](CCCCN)C(=O)N[C@H](C(=O)N[C@@H](CC(C)C)C(N)=O)[C@@H](C)CC [G5] | 39.6978 | 4.313
7 | CC[C@H](C)[C@H](N)C(=O)N[C@@H](CC(N)=O)C(=O)N[C@@H](CC(C)C)C(=O)N[C@@H](CCCCN)C(=O)N[C@@H](C)C(=O)N[C@@H](CC(C)C)C(=O)N[C@@H](C)C(=O)N[C@@H](C)C(=O)N[C@@H](CC(C)C)C(=O)N[C@@H](C)C(=O)N[C@@H](CCCCN)C(=O)N[C@H](C(=O)N[C@H](C(=O)N[C@@H](CC(C)C)C(N)=O)[C@@H](C)CC)C(C)C [V12] | 51.0657 | 18.2596
8 | CC[C@H](C)[C@H](N)C(=O)N[C@@H](CC(N)=O)C(=O)N[C@@H](CC(C)C)C(=O)N[C@@H](CCCCN)C(=O)N[C@@H](C)C(=O)N[C@@H](CC(C)C)C(=O)N[C@@H](C)C(=O)N[C@@H](C)C(=O)N[C@@H](CC(C)C)C(=O)N[C@@H](C)C(=O)N[C@@H](CCCCN)C(=O)N[C@@H](CCCCN)C(=O)N[C@H](C(=O)N[C@@H](CCCNC(=N)N)C(N)=O)[C@@H](C)CC [R14] | 9.085 | -1.726
9 | CC[C@H](C)[C@H](N)C(=O)N[C@@H](CC(N)=O)C(=O)N[C@@H](CC(C)C)C(=O)N[C@@H](CCCCN)C(=O)N[C@@H](CCC(=O)O)C(=O)N[C@@H](CC(C)C)C(=O)N[C@@H](C)C(=O)N[C@@H](C)C(=O)N[C@@H](CC(C)C)C(=O)N[C@@H](C)C(=O)N[C@@H](CCCCN)C(=O)N[C@@H](CCCCN)C(=O)N[C@H](C(=O)N[C@@H](CC(C)C)C(N)=O)[C@@H](C)CC [E5] | 15.4865 | 3.135
10 | CC[C@H](C)[C@H](N)C(=O)N[C@@H](Cc1ccc(O)cc1)C(=O)N[C@@H](CC(C)C)C(=O)N[C@@H](CCCCN)C(=O)N[C@@H](C)C(=O)N[C@@H](CC(C)C)C(=O)N[C@@H](C)C(=O)N[C@@H](C)C(=O)N[C@@H](CC(C)C)C(=O)N[C@@H](C)C(=O)N[C@@H](CCCCN)C(=O)N[C@@H](CCCCN)C(=O)N[C@H](C(=O)N[C@@H](CC(C)C)C(N)=O)[C@@H](C)CC [Y2] | 75.0702 | 57.84
11 | CC[C@H](C)[C@H](N)C(=O)N[C@@H](CC(N)=O)C(=O)N[C@@H](CC(C)C)C(=O)N[C@@H](CCCCN)C(=O)N[C@@H](C)C(=O)N[C@@H](CC(C)C)C(=O)N[C@@H](C)C(=O)NCC(=O)N[C@@H](CC(C)C)C(=O)N[C@@H](C)C(=O)N[C@@H](CCCCN)C(=O)N[C@@H](CCCCN)C(=O)N[C@H](C(=O)N[C@@H](CC(C)C)C(N)=O)[C@@H](C)CC [G8] | 28.4057 | 1.421
12 | CC[C@H](C)[C@H](N)C(=O)N[C@@H](CC(N)=O)C(=O)N[C@@H](CC(C)C)C(=O)N[C@@H](CCCCN)C(=O)N[C@@H](C)C(=O)N[C@@H](CC(C)C)C(=O)N[C@@H](C)C(=O)N[C@@H](C)C(=O)N[C@@H](CC(C)C)C(=O)N[C@@H](C)C(=O)N[C@@H](CCCCN)C(=O)N[C@@H](CCCCN)C(=O)N[C@H](C(=O)N[C@@H](CC(C)C)C(N)=O)C(C)C [V13] | 38.0334 | 11.5837
13 | CC[C@H](C)[C@H](N)C(=O)N[C@H](C(=O)N[C@@H](CC(C)C)C(=O)N[C@@H](CCCCN)C(=O)N[C@@H](C)C(=O)N[C@@H](CC(C)C)C(=O)N[C@@H](C)C(=O)N[C@@H](C)C(=O)N[C@@H](CC(C)C)C(=O)N[C@@H](C)C(=O)N[C@@H](CCCCN)C(=O)N[C@@H](CCCCN)C(=O)N[C@H](C(=O)N[C@@H](CC(C)C)C(N)=O)[C@@H](C)CC)[C@@H](C)O [T2] | 59.8803 | 20.7916
14 | CC[C@H](C)[C@H](N)C(=O)N[C@@H](CC(N)=O)C(=O)N[C@@H](CC(C)C)C(=O)N[C@@H](CCCCN)C(=O)N[C@@H](C)C(=O)N[C@@H](CC(C)C)C(=O)N[C@@H](C)C(=O)N[C@@H](C)C(=O)N[C@@H](CC(C)C)C(=O)N[C@@H](C)C(=O)N[C@@H](CCCCN)C(=O)N[C@@H](CCC(=O)O)C(=O)N[C@H](C(=O)N[C@@H](CC(C)C)C(N)=O)[C@@H](C)CC [E12] | 21.4723 | 4.97
15 | CC[C@H](C)[C@H](N)C(=O)N[C@@H](CC(N)=O)C(=O)N[C@@H](CC(C)C)C(=O)N[C@@H](CCCCN)C(=O)N[C@@H](C)C(=O)N[C@@H](CC(C)C)C(=O)N[C@@H](C)C(=O)N[C@@H](C)C(=O)N1CCC[C@H]1C(=O)N[C@@H](C)C(=O)N[C@@H](CCCCN)C(=O)N[C@@H](CCCCN)C(=O)N[C@H](C(=O)N[C@@H](CC(C)C)C(N)=O)[C@@H](C)CC [P9] | 35.5446 | -6.87
16 | CC[C@H](C)[C@H](N)C(=O)N[C@@H](CCCNC(=N)N)C(=O)N[C@@H](CC(C)C)C(=O)N[C@@H](CCCCN)C(=O)N[C@@H](C)C(=O)N[C@@H](CC(C)C)C(=O)N[C@@H](C)C(=O)N[C@@H](C)C(=O)N[C@@H](CC(C)C)C(=O)N[C@@H](C)C(=O)N[C@@H](CCCCN)C(=O)N[C@@H](CCCCN)C(=O)N[C@H](C(=O)N[C@@H](CC(C)C)C(N)=O)[C@@H](C)CC [R2] | 40.227 | 6.823
17 | CC[C@H](C)[C@H](N)C(=O)N[C@@H](CC(N)=O)C(=O)N[C@@H](CC(C)C)C(=O)N[C@@H](CCCCN)C(=O)N[C@@H](C)C(=O)N[C@@H](CC(C)C)C(=O)N[C@@H](C)C(=O)N[C@@H](C)C(=O)N[C@H](C(=O)N[C@@H](C)C(=O)N[C@@H](CCCCN)C(=O)N[C@@H](CCCCN)C(=O)N[C@H](C(=O)N[C@@H](CC(C)C)C(N)=O)[C@@H](C)CC)C(C)C [V9] | 43.1794 | 10.0305
18 | CC[C@H](C)[C@H](N)C(=O)N[C@@H](CC(N)=O)C(=O)N[C@@H](CC(C)C)C(=O)N[C@@H](CCCCN)C(=O)N[C@@H](C)C(=O)N[C@@H](CC(C)C)C(=O)N[C@@H](C)C(=O)N[C@@H](C)C(=O)N[C@@H](CC(C)C)C(=O)N[C@@H](C)C(=O)N[C@@H](Cc1c[nH]c2ccccc12)C(=O)N[C@@H](CCCCN)C(=O)N[C@H](C(=O)N[C@@H](CC(C)C)C(N)=O)[C@@H](C)CC [W11] | 74.1582 | 64.4734
19 | CC[C@H](C)[C@H](N)C(=O)N[C@@H](CC(N)=O)C(=O)N[C@@H](CC(C)C)C(=O)N[C@@H](CCCCN)C(=O)N[C@@H](C)C(=O)N[C@@H](CC(C)C)C(=O)N[C@@H](C)C(=O)N[C@@H](C)C(=O)N[C@@H](CC(C)C)C(=O)N[C@@H](C)C(=O)N[C@@H](CCCCN)C(=O)N[C@@H](CCCCN)C(=O)N[C@@H](CC(N)=O)C(=O)N[C@@H](CC(C)C)C(N)=O [N13] | 29.0846 | 7.072
